In PMC9817970 (Cancers, 2022):

What was measured:
Assay in all cases: Kinase panel profiling
Assay type in all cases: biochemical
Settings in all cases: 10 μM ATP
MLK2/MAP3K10 = molecular target: T1, MLK2/MAP3K10 (Homo sapiens, UniProt Q02779)
T1 construct: purchased Reaction Biology Corp
Experimental: (§1) Kinase panel profiling was conducted by Reaction Biology Corp. (San Diego, CA, USA). A single dose (1.0 μM) of 6r was tested against 371 recombinant human kinases in the presence of 10 μM ATP.

FYN = molecular target: T2, FYN (Homo sapiens, UniProt P06241)
T2 construct: purchased Reaction Biology Corp
Experimental: as §1

MRCKb/CDC42BPB = molecular target: T3, MRCKb/CDC42BPB (Homo sapiens, UniProt Q9Y5S2)
T3 construct: purchased Reaction Biology Corp
Experimental: as §1

NEK4 = molecular target: T4, NEK4 (Homo sapiens, UniProt P51957)
T4 construct: purchased Reaction Biology Corp
Experimental: as §1

IRAK4 = molecular target: T5, IRAK4 (Homo sapiens, UniProt Q9NWZ3)
T5 construct: purchased Reaction Biology Corp
Experimental: as §1

FGFR4 = molecular target: T6, FGFR4 (Homo sapiens, UniProt P22455)
T6 construct: purchased Reaction Biology Corp
Experimental: as §1

MST1/STK4 = molecular target: T7, MST1/STK4 (Homo sapiens, UniProt Q13043)
T7 construct: purchased Reaction Biology Corp
Experimental: as §1

HCK = molecular target: T8, HCK (Homo sapiens, UniProt P08631)
T8 construct: purchased Reaction Biology Corp
Experimental: as §1

TSSK2 = molecular target: T9, TSSK2 (Homo sapiens, UniProt Q96PF2)
T9 construct: purchased Reaction Biology Corp
Experimental: as §1

LOK/STK10 = molecular target: T10, LOK/STK10 (Homo sapiens, UniProt O94804)
T10 construct: purchased Reaction Biology Corp
Experimental: as §1

CDK1/cyclin B = molecular target: T11, CDK1/cyclin B (Homo sapiens, UniProt P06493)
T11 construct: purchased Reaction Biology Corp
Experimental: as §1

PKN2/PRK2 = molecular target: T12, PKN2/PRK2 (Homo sapiens, UniProt Q16513)
T12 construct: purchased Reaction Biology Corp
Experimental: as §1

STK25/YSK1 = molecular target: T13, STK25/YSK1 (Homo sapiens, UniProt O00506)
T13 construct: purchased Reaction Biology Corp
Experimental: as §1

ALK6/BMPR1B = molecular target: T14, ALK6/BMPR1B (Homo sapiens, UniProt O00238)
T14 construct: purchased Reaction Biology Corp
Experimental: as §1

LYN = molecular target: T15, LYN (Homo sapiens, UniProt P07948)
T15 construct: purchased Reaction Biology Corp
Experimental: as §1

CDK2/CYCLIN E = molecular target: T16, CDK2/CYCLIN E (Homo sapiens, UniProt P24941)
T16 construct: purchased Reaction Biology Corp
Experimental: as §1

PKA = molecular target: T17, PKA (Homo sapiens, UniProt P17612)
T17 construct: purchased Reaction Biology Corp
Experimental: as §1

NEK6 = molecular target: T18, NEK6 (Homo sapiens, UniProt Q9HC98)
T18 construct: purchased Reaction Biology Corp
Experimental: as §1

RET = molecular target: T19, RET (Homo sapiens, UniProt P07949)
T19 construct: purchased Reaction Biology Corp
Experimental: as §1

DYRK2 = molecular target: T20, DYRK2 (Homo sapiens, UniProt Q92630)
T20 construct: purchased Reaction Biology Corp
Experimental: as §1

EPHA5 = molecular target: T21, EPHA5 (Homo sapiens, UniProt P54756)
T21 construct: purchased Reaction Biology Corp
Experimental: as §1

NEK3 = molecular target: T22, NEK3 (Homo sapiens, UniProt P51956)
T22 construct: purchased Reaction Biology Corp
Experimental: as §1

ITK = molecular target: T23, ITK (Homo sapiens, UniProt Q08881)
T23 construct: purchased Reaction Biology Corp
Experimental: as §1

RSK3 = molecular target: T24, RSK3 (Homo sapiens, UniProt Q15349)
T24 construct: purchased Reaction Biology Corp
Experimental: as §1

CDK4/cyclin D1 = molecular target: T25, CDK4/cyclin D1 (Homo sapiens, UniProt P11802)
T25 construct: purchased Reaction Biology Corp
Experimental: as §1

MUSK = molecular target: T26, MUSK (Homo sapiens, UniProt O15146)
T26 construct: purchased Reaction Biology Corp
Experimental: as §1

PAK4 = molecular target: T27, PAK4 (Homo sapiens, UniProt O96013)
T27 construct: purchased Reaction Biology Corp
Experimental: as §1

FRK/PTK5 = molecular target: T28, FRK/PTK5 (Homo sapiens, UniProt P42685)
T28 construct: purchased Reaction Biology Corp
Experimental: as §1

TEC = molecular target: T29, TEC (Homo sapiens, UniProt P42680)
T29 construct: purchased Reaction Biology Corp
Experimental: as §1

FGFR2 = molecular target: T30, FGFR2 (Homo sapiens, UniProt P21802)
T30 construct: purchased Reaction Biology Corp
Experimental: as §1

PKG1a = molecular target: T31, PKG1a (Homo sapiens, UniProt Q13976)
T31 construct: purchased Reaction Biology Corp
Experimental: as §1

DYRK1B = molecular target: T32, DYRK1B (Homo sapiens, UniProt Q9Y463)
T32 construct: purchased Reaction Biology Corp
Experimental: as §1

BRAF = molecular target: T33, BRAF (Homo sapiens, UniProt P15056)
T33 construct: purchased Reaction Biology Corp
Experimental: as §1

STK16 = molecular target: T34, STK16 (Homo sapiens, UniProt O75716)
T34 construct: purchased Reaction Biology Corp
Experimental: as §1

MAPKAPK5/PRAK = molecular target: T35, MAPKAPK5/PRAK (Homo sapiens, UniProt Q8IW41)
T35 construct: purchased Reaction Biology Corp
Experimental: as §1

MSK1/RPS6KA5 = molecular target: T36, MSK1/RPS6KA5 (Homo sapiens, UniProt O75582)
T36 construct: purchased Reaction Biology Corp
Experimental: as §1

MAK = molecular target: T37, MAK (Homo sapiens, UniProt P20794)
T37 construct: purchased Reaction Biology Corp
Experimental: as §1

ACK1 = molecular target: T38, ACK1 (Homo sapiens, UniProt Q07912)
T38 construct: purchased Reaction Biology Corp
Experimental: as §1

ULK3 = molecular target: T39, ULK3 (Homo sapiens, UniProt Q6PHR2)
T39 construct: purchased Reaction Biology Corp
Experimental: as §1

CDK18/cyclin Y (PCTK3) = molecular target: T40, CDK18/cyclin Y (PCTK3) (Homo sapiens, UniProt Q07002)
T40 construct: purchased Reaction Biology Corp
Experimental: as §1

NEK1 = molecular target: T41, NEK1 (Homo sapiens, UniProt Q96PY6)
T41 construct: purchased Reaction Biology Corp
Experimental: as §1

JNK1 = molecular target: T42, JNK1 (Homo sapiens, UniProt P45983)
T42 construct: purchased Reaction Biology Corp
Experimental: as §1

T30 sequence (P21802 22-821): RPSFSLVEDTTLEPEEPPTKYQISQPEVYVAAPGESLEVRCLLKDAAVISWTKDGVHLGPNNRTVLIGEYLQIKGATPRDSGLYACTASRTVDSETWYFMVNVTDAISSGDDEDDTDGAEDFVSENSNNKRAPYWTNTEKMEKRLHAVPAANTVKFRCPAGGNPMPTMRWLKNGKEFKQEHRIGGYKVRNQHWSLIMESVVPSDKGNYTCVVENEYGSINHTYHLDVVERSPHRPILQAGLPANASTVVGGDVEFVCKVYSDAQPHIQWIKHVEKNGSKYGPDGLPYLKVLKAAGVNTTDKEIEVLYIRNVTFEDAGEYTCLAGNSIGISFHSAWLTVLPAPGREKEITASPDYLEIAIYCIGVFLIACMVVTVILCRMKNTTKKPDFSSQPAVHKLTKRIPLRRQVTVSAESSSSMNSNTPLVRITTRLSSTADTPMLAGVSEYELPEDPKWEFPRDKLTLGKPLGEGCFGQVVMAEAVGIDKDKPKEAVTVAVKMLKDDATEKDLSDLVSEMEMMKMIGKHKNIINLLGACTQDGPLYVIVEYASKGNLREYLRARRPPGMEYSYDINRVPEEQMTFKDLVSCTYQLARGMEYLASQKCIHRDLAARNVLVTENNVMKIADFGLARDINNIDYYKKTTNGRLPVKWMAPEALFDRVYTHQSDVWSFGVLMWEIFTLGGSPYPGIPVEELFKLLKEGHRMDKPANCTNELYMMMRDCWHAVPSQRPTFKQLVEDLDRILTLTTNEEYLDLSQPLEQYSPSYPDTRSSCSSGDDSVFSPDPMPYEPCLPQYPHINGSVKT
T29 sequence (P42680 whole entry): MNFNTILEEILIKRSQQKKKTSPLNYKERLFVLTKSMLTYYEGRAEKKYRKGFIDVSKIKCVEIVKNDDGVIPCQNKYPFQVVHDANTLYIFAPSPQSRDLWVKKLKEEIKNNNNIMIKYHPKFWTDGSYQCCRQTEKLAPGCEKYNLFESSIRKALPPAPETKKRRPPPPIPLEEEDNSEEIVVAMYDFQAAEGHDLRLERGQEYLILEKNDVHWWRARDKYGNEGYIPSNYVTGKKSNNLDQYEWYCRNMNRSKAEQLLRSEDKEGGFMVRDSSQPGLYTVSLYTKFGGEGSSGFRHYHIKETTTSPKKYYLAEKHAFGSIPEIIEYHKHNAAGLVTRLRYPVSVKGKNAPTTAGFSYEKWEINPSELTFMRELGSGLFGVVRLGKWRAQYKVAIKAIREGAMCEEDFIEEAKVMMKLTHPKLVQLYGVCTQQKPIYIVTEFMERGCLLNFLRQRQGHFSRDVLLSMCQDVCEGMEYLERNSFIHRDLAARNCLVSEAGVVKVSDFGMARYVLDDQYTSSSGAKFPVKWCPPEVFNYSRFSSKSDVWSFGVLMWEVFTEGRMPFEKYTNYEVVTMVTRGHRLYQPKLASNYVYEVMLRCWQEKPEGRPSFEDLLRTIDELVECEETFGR
T21 sequence (P54756 25-1037): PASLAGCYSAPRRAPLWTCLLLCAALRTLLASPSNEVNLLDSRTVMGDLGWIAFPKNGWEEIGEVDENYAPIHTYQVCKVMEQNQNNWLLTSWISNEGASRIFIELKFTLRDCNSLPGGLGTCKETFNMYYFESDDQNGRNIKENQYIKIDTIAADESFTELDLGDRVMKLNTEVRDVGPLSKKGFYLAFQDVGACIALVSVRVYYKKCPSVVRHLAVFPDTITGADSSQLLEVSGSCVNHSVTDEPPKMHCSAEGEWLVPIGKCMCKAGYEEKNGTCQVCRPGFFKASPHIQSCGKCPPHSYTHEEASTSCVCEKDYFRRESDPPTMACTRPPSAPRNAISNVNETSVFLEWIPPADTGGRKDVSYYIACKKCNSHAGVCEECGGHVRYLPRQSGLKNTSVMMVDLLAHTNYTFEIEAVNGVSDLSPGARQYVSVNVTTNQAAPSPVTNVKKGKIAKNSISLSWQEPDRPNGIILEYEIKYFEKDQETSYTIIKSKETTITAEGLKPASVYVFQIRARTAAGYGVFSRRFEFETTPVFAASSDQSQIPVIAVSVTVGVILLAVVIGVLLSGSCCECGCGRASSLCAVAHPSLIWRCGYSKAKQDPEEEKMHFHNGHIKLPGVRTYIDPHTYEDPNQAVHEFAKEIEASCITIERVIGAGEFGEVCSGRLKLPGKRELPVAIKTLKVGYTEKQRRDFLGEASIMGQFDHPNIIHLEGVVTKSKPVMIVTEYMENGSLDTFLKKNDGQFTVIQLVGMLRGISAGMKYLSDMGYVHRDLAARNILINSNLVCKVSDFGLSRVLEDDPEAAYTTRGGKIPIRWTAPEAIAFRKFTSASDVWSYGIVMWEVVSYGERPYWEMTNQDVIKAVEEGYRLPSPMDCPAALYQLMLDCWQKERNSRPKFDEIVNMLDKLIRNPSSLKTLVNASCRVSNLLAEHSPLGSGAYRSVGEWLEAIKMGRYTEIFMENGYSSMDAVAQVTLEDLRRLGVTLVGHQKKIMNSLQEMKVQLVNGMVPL
T14 sequence (O00238 14-502): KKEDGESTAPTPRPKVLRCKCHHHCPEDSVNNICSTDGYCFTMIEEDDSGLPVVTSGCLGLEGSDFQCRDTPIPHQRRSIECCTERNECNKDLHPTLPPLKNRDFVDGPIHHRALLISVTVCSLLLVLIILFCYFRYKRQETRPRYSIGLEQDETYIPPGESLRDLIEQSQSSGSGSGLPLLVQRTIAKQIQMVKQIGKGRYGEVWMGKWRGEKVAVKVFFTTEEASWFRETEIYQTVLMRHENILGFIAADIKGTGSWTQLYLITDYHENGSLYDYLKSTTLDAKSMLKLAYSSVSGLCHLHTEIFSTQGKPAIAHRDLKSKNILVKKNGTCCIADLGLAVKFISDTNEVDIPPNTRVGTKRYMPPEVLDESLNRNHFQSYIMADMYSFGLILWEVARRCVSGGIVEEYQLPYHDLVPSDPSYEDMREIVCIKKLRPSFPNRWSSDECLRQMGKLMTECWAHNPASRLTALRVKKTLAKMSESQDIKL
T5 sequence (Q9NWZ3 whole entry): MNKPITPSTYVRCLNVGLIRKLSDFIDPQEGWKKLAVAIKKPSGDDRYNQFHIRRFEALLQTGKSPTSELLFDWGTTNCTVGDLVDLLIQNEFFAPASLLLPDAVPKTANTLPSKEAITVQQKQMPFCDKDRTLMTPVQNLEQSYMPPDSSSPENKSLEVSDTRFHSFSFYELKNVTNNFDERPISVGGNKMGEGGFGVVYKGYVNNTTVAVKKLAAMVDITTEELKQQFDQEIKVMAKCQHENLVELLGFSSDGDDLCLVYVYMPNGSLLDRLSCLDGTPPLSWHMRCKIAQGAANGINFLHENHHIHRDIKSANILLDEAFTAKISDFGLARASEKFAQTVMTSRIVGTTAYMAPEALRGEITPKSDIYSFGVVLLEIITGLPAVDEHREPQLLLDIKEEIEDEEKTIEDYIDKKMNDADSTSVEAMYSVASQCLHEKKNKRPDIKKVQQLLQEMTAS
T9 sequence (Q96PF2 whole entry): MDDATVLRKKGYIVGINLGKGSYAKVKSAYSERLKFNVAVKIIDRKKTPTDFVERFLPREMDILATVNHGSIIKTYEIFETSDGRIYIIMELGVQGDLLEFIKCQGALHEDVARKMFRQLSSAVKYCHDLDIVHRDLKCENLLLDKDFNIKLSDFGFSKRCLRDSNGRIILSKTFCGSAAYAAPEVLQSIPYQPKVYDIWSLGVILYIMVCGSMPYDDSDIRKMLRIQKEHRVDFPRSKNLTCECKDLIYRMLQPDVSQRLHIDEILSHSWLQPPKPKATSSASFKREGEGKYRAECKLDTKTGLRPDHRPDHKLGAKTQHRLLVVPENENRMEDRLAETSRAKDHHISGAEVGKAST
T1 sequence (Q02779 whole entry): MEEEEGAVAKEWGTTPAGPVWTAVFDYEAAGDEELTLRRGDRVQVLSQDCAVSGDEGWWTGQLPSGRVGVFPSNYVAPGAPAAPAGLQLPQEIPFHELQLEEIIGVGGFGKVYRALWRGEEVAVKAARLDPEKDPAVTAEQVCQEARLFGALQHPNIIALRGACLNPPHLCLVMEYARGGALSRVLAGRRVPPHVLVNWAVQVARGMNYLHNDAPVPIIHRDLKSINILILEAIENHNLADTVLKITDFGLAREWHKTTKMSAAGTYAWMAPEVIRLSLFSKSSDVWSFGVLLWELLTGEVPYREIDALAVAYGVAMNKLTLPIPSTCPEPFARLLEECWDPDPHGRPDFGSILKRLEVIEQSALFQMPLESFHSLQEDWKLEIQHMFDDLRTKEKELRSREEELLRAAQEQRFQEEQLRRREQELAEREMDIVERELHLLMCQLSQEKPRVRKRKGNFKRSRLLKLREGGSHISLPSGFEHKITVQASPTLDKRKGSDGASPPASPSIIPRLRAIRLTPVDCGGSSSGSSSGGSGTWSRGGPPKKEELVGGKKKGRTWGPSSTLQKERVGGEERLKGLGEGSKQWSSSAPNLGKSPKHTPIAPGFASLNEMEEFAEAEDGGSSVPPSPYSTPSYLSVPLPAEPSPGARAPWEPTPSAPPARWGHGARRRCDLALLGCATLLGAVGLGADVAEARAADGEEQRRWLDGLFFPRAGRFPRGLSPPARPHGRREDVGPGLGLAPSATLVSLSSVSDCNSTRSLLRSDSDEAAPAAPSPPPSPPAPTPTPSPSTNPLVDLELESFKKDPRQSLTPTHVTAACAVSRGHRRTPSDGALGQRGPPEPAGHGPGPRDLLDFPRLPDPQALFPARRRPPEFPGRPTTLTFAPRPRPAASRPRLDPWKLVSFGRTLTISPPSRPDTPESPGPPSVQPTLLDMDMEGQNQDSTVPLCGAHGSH
T18 sequence (Q9HC98 whole entry): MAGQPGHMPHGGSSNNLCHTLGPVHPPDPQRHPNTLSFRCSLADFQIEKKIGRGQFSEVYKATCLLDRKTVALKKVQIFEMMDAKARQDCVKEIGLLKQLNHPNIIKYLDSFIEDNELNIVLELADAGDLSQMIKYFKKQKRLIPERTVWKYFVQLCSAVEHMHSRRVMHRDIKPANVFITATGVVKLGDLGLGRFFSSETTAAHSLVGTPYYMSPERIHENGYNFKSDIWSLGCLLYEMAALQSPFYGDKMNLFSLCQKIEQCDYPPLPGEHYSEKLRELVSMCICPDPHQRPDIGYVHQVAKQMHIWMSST

Q: For Cc1ccc(NC(=O)c2ccc(CN3CCN(C)CC3)c(C(F)(F)F)c2)cc1-c1cnc2sc(N)nc2c1 [6r], which inhibition at 1 µM (MLK2/MAP3K10) is on record?
A: The inhibition at 1 µM was 13.4%.

Q: And the inhibition at 1 µM (FYN)?
A: The inhibition at 1 µM was 89%.

Q: And the inhibition at 1 µM (MRCKb/CDC42BPB)?
A: Its inhibition at 1 µM is 2.4%.

Q: What about the inhibition at 1 µM (NEK4) of the same compound?
A: The inhibition at 1 µM was 25.6%.

Q: And the inhibition at 1 µM (IRAK4)?
A: The inhibition at 1 µM was 0%.

Q: What about the inhibition at 1 µM (FGFR4) of the same compound?
A: The inhibition at 1 µM was 30.1%.

Q: And the inhibition at 1 µM (MST1/STK4)?
A: The inhibition at 1 µM was 4.3%.

Q: And the inhibition at 1 µM (HCK)?
A: Its inhibition at 1 µM is 83.1%.

Q: What about the inhibition at 1 µM (TSSK2) of the same compound?
A: Its inhibition at 1 µM is 0%.

Q: And the inhibition at 1 µM (LOK/STK10)?
A: Its inhibition at 1 µM is 14%.

Q: And the inhibition at 1 µM (CDK1/cyclin B)?
A: The inhibition at 1 µM was 0%.

Q: What about the inhibition at 1 µM (PKN2/PRK2) of the same compound?
A: The inhibition at 1 µM was 0%.

Q: And the inhibition at 1 µM (STK25/YSK1)?
A: The inhibition at 1 µM was 9.3%.

Q: And the inhibition at 1 µM (ALK6/BMPR1B)?
A: Its inhibition at 1 µM is 15%.

Q: And the inhibition at 1 µM (LYN)?
A: Its inhibition at 1 µM is 97.5%.

Q: And the inhibition at 1 µM (CDK2/CYCLIN E)?
A: The inhibition at 1 µM was 0%.

Q: And the inhibition at 1 µM (PKA)?
A: The inhibition at 1 µM was 5.3%.

Q: What about the inhibition at 1 µM (NEK6) of the same compound?
A: Its inhibition at 1 µM is 1%.

Q: What about the inhibition at 1 µM (RET) of the same compound?
A: The inhibition at 1 µM was 99.4%.

Q: And the inhibition at 1 µM (DYRK2)?
A: The inhibition at 1 µM was 0.6%.

Q: What about the inhibition at 1 µM (EPHA5) of the same compound?
A: The inhibition at 1 µM was 78.5%.

Q: What about the inhibition at 1 µM (NEK3) of the same compound?
A: Its inhibition at 1 µM is 0%.

Q: And the inhibition at 1 µM (ITK)?
A: Its inhibition at 1 µM is 3.8%.

Q: And the inhibition at 1 µM (RSK3)?
A: The inhibition at 1 µM was 5.4%.

Q: And the inhibition at 1 µM (CDK4/cyclin D1)?
A: Its inhibition at 1 µM is 4.7%.

Q: And the inhibition at 1 µM (MUSK)?
A: Its inhibition at 1 µM is 10.8%.

Q: And the inhibition at 1 µM (PAK4)?
A: The inhibition at 1 µM was 8.6%.

Q: What about the inhibition at 1 µM (FRK/PTK5) of the same compound?
A: Its inhibition at 1 µM is 98.4%.

Q: What about the inhibition at 1 µM (TEC) of the same compound?
A: Its inhibition at 1 µM is 1.6%.

Q: What about the inhibition at 1 µM (FGFR2) of the same compound?
A: Its inhibition at 1 µM is 43%.

Q: And the inhibition at 1 µM (PKG1a)?
A: Its inhibition at 1 µM is 10.1%.

Q: What about the inhibition at 1 µM (DYRK1B) of the same compound?
A: Its inhibition at 1 µM is 26.2%.

Q: And the inhibition at 1 µM (BRAF)?
A: Its inhibition at 1 µM is 97.4%.

Q: What about the inhibition at 1 µM (STK16) of the same compound?
A: The inhibition at 1 µM was 3.6%.

Q: And the inhibition at 1 µM (MAPKAPK5/PRAK)?
A: Its inhibition at 1 µM is 0%.

Q: And the inhibition at 1 µM (MSK1/RPS6KA5)?
A: Its inhibition at 1 µM is 0%.

Q: What about the inhibition at 1 µM (MAK) of the same compound?
A: Its inhibition at 1 µM is 15%.

Q: What about the inhibition at 1 µM (ACK1) of the same compound?
A: The inhibition at 1 µM was 39.9%.

Q: And the inhibition at 1 µM (ULK3)?
A: Its inhibition at 1 µM is 7.2%.

Q: What about the inhibition at 1 µM (CDK18/cyclin Y (PCTK3)) of the same compound?
A: The inhibition at 1 µM was 5.1%.

Q: What about the inhibition at 1 µM (NEK1) of the same compound?
A: The inhibition at 1 µM was 2.6%.

Q: And the inhibition at 1 µM (JNK1)?
A: The inhibition at 1 µM was 14%.
